{"source": "paper PMC5862592", "about": "“CDK8/19 inhibition induces premature G1/S transition and ATR-dependent cell death in prostate cancer cells” (Oncotarget, 2018)", "assay_in_all_cases": "biochemical", "design_in_all_cases": "KINOMEscan active site-directed competition binding assay (DiscoveRx), 456 kinases, per cent of control at 300 nM", "settings_in_all_cases": "read-out: Percent of Control (%)", "key": {"DDR2": {"molecular_target": "DDR2 (Homo sapiens, UniProt Q16832)", "sequence (Q16832 whole entry)": "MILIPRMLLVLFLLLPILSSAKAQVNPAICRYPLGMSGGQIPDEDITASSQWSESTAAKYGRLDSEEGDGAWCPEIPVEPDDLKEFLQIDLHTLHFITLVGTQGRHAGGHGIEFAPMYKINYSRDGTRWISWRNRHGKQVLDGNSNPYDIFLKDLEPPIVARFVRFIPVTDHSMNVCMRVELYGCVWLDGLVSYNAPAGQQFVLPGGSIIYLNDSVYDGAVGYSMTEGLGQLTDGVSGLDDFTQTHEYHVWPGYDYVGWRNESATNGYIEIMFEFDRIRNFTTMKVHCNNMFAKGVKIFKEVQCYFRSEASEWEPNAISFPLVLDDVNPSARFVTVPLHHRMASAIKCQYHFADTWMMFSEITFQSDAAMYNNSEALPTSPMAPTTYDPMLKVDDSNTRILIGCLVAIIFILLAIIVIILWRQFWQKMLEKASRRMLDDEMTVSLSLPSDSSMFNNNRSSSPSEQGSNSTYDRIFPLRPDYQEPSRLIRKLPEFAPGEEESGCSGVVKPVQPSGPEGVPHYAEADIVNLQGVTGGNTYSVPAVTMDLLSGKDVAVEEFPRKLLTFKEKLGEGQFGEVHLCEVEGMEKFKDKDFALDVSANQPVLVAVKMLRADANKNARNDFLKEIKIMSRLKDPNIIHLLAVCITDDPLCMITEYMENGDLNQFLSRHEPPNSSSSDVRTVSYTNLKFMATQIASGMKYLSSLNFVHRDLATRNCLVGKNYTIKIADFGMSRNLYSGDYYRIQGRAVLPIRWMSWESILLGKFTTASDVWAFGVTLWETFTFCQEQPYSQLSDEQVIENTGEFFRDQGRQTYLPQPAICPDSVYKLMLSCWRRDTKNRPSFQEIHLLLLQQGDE", "procedure,_shortened": "(§1)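 Single-concentration selectivity screen: compound 300 nmol/L; 456-kinase panel; active-site-directed competition binding read-out.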"}, "LATS2": {"molecular_target": "LATS2 (Homo sapiens, UniProt Q9NRM7)", "sequence (Q9NRM7 whole entry)": "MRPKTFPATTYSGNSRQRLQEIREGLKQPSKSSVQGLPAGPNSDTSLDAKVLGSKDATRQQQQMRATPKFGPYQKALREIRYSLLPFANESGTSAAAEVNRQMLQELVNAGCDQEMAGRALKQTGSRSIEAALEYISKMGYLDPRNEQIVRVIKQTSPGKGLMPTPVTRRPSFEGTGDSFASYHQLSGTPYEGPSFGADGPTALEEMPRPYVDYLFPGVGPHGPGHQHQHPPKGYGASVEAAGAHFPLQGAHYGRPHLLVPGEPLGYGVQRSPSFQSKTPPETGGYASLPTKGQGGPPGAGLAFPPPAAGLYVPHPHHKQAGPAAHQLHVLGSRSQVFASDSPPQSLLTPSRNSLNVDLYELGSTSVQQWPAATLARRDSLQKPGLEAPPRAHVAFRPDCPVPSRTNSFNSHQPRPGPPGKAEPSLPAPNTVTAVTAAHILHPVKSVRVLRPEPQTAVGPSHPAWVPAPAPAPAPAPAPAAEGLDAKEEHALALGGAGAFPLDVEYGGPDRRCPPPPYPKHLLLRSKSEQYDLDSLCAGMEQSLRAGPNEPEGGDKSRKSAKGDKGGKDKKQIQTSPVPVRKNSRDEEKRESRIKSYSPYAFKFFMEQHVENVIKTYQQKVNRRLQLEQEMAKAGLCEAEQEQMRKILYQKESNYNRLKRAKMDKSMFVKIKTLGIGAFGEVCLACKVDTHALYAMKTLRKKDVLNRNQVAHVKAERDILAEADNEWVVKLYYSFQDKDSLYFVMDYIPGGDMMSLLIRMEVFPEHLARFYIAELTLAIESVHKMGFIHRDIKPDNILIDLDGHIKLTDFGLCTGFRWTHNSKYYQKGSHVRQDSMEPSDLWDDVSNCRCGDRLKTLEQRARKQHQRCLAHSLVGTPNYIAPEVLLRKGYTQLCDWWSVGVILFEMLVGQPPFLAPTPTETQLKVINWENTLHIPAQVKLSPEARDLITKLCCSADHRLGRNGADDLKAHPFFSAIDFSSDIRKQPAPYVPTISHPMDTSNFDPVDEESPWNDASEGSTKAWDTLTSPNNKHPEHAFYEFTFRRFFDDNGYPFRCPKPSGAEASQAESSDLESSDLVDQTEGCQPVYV", "procedure,_shortened": "as §1"}, "TIE1": {"molecular_target": "TIE1 (Homo sapiens, UniProt P35590)", "procedure,_shortened": "as §1"}, "MEK2": {"molecular_target": "T1, MEK2 (Homo sapiens, UniProt P36507)", "T1 construct": "gene MAP2K2", "procedure,_shortened": "as §1"}, "STK39": {"molecular_target": "STK39 (Homo sapiens, UniProt Q9UEW8)", "procedure,_shortened": "as §1"}, "DCAMKL2": {"molecular_target": "T2, DCAMKL2 (Homo sapiens, UniProt Q8N568)", "T2 construct": "gene DCLK2", "procedure,_shortened": "as §1"}, "BMPR2": {"molecular_target": "BMPR2 (Homo sapiens, UniProt Q13873)", "procedure,_shortened": "as §1"}, "FLT3(N841I)": {"molecular_target": "FLT3(N841I) (Homo sapiens, UniProt P36888, N841I)", "procedure,_shortened": "as §1"}, "FES": {"molecular_target": "FES (Homo sapiens, UniProt P07332)", "procedure,_shortened": "as §1"}, "[1]": {"molecular_target": "T3, ABL1(M351T)-phosphorylated (Homo sapiens, UniProt P00519, M351T)", "T3 construct": "phosphorylated", "procedure,_shortened": "as §1"}, "[2]": {"molecular_target": "T4, RPS6KA4(Kin.Dom.1-N-terminal) (Homo sapiens, UniProt O75676)", "T4 construct": "Kin.Dom.1-N-terminal", "procedure,_shortened": "as §1"}, "EGFR(S752-I759del)": {"molecular_target": "EGFR(S752-I759del) (Homo sapiens, UniProt P00533, DEL752-759)", "procedure,_shortened": "as §1"}, "TNIK": {"molecular_target": "TNIK (Homo sapiens, UniProt Q9UKE5)", "sequence (Q9UKE5 whole entry)": "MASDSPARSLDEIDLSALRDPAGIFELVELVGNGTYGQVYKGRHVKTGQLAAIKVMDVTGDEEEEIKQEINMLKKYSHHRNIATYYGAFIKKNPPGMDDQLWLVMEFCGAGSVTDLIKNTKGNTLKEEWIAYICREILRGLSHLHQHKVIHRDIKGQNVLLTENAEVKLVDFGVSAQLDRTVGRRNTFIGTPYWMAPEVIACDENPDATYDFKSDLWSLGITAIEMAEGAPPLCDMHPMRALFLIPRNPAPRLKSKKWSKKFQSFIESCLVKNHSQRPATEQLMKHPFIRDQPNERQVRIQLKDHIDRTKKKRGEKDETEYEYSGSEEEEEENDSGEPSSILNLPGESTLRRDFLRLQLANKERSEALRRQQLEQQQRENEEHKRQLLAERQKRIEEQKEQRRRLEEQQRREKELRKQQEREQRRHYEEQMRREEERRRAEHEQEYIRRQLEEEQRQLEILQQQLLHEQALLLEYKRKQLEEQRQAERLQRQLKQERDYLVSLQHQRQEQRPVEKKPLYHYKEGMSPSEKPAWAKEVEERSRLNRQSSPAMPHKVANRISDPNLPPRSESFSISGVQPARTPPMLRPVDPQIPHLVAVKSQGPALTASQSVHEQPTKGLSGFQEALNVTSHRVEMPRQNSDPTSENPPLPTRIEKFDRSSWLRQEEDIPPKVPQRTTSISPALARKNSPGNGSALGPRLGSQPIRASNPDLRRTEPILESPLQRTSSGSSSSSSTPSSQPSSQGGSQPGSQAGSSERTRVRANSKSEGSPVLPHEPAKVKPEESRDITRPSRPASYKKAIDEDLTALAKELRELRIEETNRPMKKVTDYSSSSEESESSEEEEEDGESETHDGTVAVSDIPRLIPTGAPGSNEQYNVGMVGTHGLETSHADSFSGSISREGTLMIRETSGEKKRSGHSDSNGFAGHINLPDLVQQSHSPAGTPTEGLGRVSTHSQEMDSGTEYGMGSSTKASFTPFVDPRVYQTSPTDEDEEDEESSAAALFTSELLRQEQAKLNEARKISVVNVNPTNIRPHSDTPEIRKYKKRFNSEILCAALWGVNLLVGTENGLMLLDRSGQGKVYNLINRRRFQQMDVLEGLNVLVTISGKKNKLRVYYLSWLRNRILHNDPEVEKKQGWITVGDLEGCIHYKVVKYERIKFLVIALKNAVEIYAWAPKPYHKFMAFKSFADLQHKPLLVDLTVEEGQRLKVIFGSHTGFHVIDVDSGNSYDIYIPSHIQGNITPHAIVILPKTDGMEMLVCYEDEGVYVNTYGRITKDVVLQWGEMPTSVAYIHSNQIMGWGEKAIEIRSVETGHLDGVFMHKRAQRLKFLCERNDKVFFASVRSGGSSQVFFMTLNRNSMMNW", "procedure,_shortened": "as §1"}, "LIMK1": {"molecular_target": "LIMK1 (Homo sapiens, UniProt P53667)", "sequence (P53667 whole entry)": "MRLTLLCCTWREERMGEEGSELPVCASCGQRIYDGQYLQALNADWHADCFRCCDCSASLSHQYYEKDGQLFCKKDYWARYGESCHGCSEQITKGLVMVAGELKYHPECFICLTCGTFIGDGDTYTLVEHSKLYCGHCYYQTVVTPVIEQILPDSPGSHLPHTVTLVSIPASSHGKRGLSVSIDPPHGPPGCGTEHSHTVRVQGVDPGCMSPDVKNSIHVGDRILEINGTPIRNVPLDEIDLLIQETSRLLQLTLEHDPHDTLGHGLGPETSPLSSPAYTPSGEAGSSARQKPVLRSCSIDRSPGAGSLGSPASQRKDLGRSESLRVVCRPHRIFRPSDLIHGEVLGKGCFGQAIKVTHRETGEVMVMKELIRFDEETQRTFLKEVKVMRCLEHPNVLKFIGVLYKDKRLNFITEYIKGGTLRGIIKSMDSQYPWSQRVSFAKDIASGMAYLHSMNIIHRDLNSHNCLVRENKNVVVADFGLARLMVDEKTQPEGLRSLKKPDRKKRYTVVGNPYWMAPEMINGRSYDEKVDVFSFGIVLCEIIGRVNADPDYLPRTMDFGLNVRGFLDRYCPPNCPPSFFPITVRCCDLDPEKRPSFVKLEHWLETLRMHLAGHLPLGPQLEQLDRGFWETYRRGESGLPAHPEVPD", "procedure,_shortened": "as §1"}, "PKNB(M.tuberculosis)": {"molecular_target": "PKNB(M.tuberculosis) (Mycobacterium tuberculosis, UniProt P9WI81)", "procedure,_shortened": "as §1"}, "EPHA8": {"molecular_target": "EPHA8 (Homo sapiens, UniProt P29322)", "procedure,_shortened": "as §1"}, "CDKL3": {"molecular_target": "CDKL3 (Homo sapiens, UniProt Q8IVW4)", "procedure,_shortened": "as §1"}, "PIK3C2G": {"molecular_target": "PIK3C2G (Homo sapiens, UniProt O75747)", "procedure,_shortened": "as §1"}, "PFTK1": {"molecular_target": "T5, PFTK1 (Homo sapiens, UniProt O94921)", "T5 construct": "gene CDK14", "procedure,_shortened": "as §1"}, "CAMK1D": {"molecular_target": "CAMK1D (Homo sapiens, UniProt Q8IU85)", "sequence (Q8IU85 whole entry)": "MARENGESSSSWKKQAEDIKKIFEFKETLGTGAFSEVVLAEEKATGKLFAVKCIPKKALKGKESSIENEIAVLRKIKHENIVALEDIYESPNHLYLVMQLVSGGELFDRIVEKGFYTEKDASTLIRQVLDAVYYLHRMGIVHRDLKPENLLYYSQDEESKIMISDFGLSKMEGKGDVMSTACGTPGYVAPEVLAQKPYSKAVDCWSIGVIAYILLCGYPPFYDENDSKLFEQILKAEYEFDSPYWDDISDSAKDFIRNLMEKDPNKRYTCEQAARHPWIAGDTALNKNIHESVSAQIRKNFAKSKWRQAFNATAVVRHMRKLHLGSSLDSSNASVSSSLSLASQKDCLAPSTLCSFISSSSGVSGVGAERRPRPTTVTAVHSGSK", "procedure,_shortened": "as §1"}, "PFPK5(P.falciparum)": {"molecular_target": "T6, PFPK5(P.falciparum) (Plasmodium falciparum, UniProt P61075)", "T6 construct": "gene MAL13P1.279", "T6 sequence (P61075 whole entry)": "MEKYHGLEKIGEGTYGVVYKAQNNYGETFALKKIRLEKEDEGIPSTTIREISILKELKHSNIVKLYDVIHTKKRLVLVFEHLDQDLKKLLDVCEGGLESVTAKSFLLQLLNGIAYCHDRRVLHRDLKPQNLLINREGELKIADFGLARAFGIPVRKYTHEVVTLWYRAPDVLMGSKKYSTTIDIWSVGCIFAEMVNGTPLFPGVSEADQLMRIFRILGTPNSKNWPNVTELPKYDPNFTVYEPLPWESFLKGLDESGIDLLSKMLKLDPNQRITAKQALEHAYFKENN", "procedure,_shortened": "as §1"}}, "note": "Like-named read-outs stand apart in the source and are kept apart here."}
{"compound": "Cc1ncccc1Oc1sc(C(N)=O)c2c1-c1c(cnn1C)CC2", "note": "[T-474, 1-methyl-8-((2-methylpyridin-3-yl)oxy)-4,5-dihydro-1H-thieno[3,4-g]indazole-6-carboxamide]", "values": [{"measurement": "remaining binding at 0.3 µM", "setting": "DDR2", "value": 100, "unit": "%"}, {"measurement": "remaining binding at 0.3 µM", "setting": "LATS2", "value": 100, "unit": "%"}, {"measurement": "remaining binding at 0.3 µM", "setting": "TIE1", "value": 100, "unit": "%"}, {"measurement": "remaining binding at 0.3 µM", "setting": "MEK2", "value": 100, "unit": "%"}, {"measurement": "remaining binding at 0.3 µM", "setting": "STK39", "value": 100, "unit": "%"}, {"measurement": "remaining binding at 0.3 µM", "setting": "DCAMKL2", "value": 100, "unit": "%"}, {"measurement": "remaining binding at 0.3 µM", "setting": "BMPR2", "value": 99, "unit": "%"}, {"measurement": "remaining binding at 0.3 µM", "setting": "FLT3(N841I)", "value": 97, "unit": "%"}, {"measurement": "remaining binding at 0.3 µM", "setting": "FES", "value": 100, "unit": "%"}, {"measurement": "remaining binding at 0.3 µM", "setting": "[1]", "value": 100, "unit": "%"}, {"measurement": "remaining binding at 0.3 µM", "setting": "[2]", "value": 100, "unit": "%"}, {"measurement": "remaining binding at 0.3 µM", "setting": "EGFR(S752-I759del)", "value": 100, "unit": "%"}, {"measurement": "remaining binding at 0.3 µM", "setting": "TNIK", "value": 100, "unit": "%"}, {"measurement": "remaining binding at 0.3 µM", "setting": "LIMK1", "value": 100, "unit": "%"}, {"measurement": "remaining binding at 0.3 µM", "setting": "PKNB(M.tuberculosis)", "value": 75, "unit": "%"}, {"measurement": "remaining binding at 0.3 µM", "setting": "EPHA8", "value": 91, "unit": "%"}, {"measurement": "remaining binding at 0.3 µM", "setting": "CDKL3", "value": 96, "unit": "%"}, {"measurement": "remaining binding at 0.3 µM", "setting": "PIK3C2G", "value": 92, "unit": "%"}, {"measurement": "remaining binding at 0.3 µM", "setting": "PFTK1", "value": 100, "unit": "%"}, {"measurement": "remaining binding at 0.3 µM", "setting": "CAMK1D", "value": 79, "unit": "%"}, {"measurement": "remaining binding at 0.3 µM", "setting": "PFPK5(P.falciparum)", "value": 95, "unit": "%"}]}
{"compound": "O=C(/C=C/c1cnccc1-c1ccc(F)cc1)Nc1ccc(CCc2nnco2)cc1", "note": "[T-418, (2E)-3-(4-(4-fluorophenyl)pyridin-3-yl)-N-(4-(2-(1,3,4-oxadiazol-2-yl)ethyl)phenyl)acrylamide]", "values": [{"measurement": "remaining binding at 0.3 µM", "setting": "DDR2; sheet T-418", "value": 100, "unit": "%"}, {"measurement": "remaining binding at 0.3 µM", "setting": "LATS2; sheet T-418", "value": 100, "unit": "%"}, {"measurement": "remaining binding at 0.3 µM", "setting": "TIE1; sheet T-418", "value": 100, "unit": "%"}, {"measurement": "remaining binding at 0.3 µM", "setting": "MEK2; sheet T-418", "value": 100, "unit": "%"}, {"measurement": "remaining binding at 0.3 µM", "setting": "STK39; sheet T-418", "value": 100, "unit": "%"}, {"measurement": "remaining binding at 0.3 µM", "setting": "DCAMKL2; sheet T-418", "value": 100, "unit": "%"}, {"measurement": "remaining binding at 0.3 µM", "setting": "BMPR2; sheet T-418", "value": 86, "unit": "%"}, {"measurement": "remaining binding at 0.3 µM", "setting": "FLT3(N841I); sheet T-418", "value": 79, "unit": "%"}, {"measurement": "remaining binding at 0.3 µM", "setting": "FES; sheet T-418", "value": 83, "unit": "%"}, {"measurement": "remaining binding at 0.3 µM", "setting": "[1]; sheet T-418", "value": 100, "unit": "%"}, {"measurement": "remaining binding at 0.3 µM", "setting": "[2]; sheet T-418", "value": 90, "unit": "%"}, {"measurement": "remaining binding at 0.3 µM", "setting": "EGFR(S752-I759del); sheet T-418", "value": 98, "unit": "%"}, {"measurement": "remaining binding at 0.3 µM", "setting": "TNIK; sheet T-418", "value": 100, "unit": "%"}, {"measurement": "remaining binding at 0.3 µM", "setting": "LIMK1; sheet T-418", "value": 100, "unit": "%"}, {"measurement": "remaining binding at 0.3 µM", "setting": "PKNB(M.tuberculosis); sheet T-418", "value": 84, "unit": "%"}, {"measurement": "remaining binding at 0.3 µM", "setting": "EPHA8; sheet T-418", "value": 88, "unit": "%"}, {"measurement": "remaining binding at 0.3 µM", "setting": "CDKL3; sheet T-418", "value": 78, "unit": "%"}, {"measurement": "remaining binding at 0.3 µM", "setting": "PIK3C2G; sheet T-418", "value": 95, "unit": "%"}, {"measurement": "remaining binding at 0.3 µM", "setting": "PFTK1; sheet T-418", "value": 87, "unit": "%"}, {"measurement": "remaining binding at 0.3 µM", "setting": "CAMK1D; sheet T-418", "value": 94, "unit": "%"}, {"measurement": "remaining binding at 0.3 µM", "setting": "PFPK5(P.falciparum); sheet T-418", "value": 76, "unit": "%"}]}
